According to patent US20240050735A1, “SYSTEMS AND METHODS FOR TREATING AND INHIBITING WOUND INFECTIONS” (priority 2020, published 2024):
Where two headings read alike, the source gives them in different places.

Experiments:
[1] = type: in vitro ADME, porcine; details: for distribution in wound tissue (fluorescence): 1 mg mL^−1 FD-4
Experimental: It was determined that high-intensity iontophoresis using the HIC-based biofilm treatment system 100 was able to enhance the VAN penetration depth in wound tissues. A high penetration depth would allow effective treatment of bacteria in deeper layers of clinical biofilm infections to minimize biofilm reformation. A fluorescently labeled dextran (M.W.=4 kDa, FD-4) was used to visualize drug distribution in wound tissue immediately after iontophoresis in this test. […] All wound tissues were dehydrated by acetone before sectioning to minimize FD-4 mobility during sample processing. When passive diffusion and 0.5 mA cm^−2 were applied, the fluorescence was indiscernible under microscope. […] This penetration depth was higher than the typical thickness of in vivo S. aureus biofilm infections in skin wounds (150 μm above wound surface and 190 μm below wound surface).
FD-4 penetration and distribution in the MRSA biofilm infected skin wound was evaluated by cryo-section and fluorescent microscopy. Briefly, samples were collected by 8-mm disposable biopsy punch and dehydrated in acetone for 10 to 30 minutes. After being air dried for another 10 to 30 minutes, the samples were embedded in tissue freezing medium (OCT) and sectioned to obtain 10 μm section under −20 ° C. Section samples were then observed under a fluorescent microscope (DMI 6000 B, Leica, Bannockburn, Ill., USA).

[2] = type: in vitro ADME; details: for concentration delivered to wound tissues: 5 mg mL^−1 DAP loaded
Experimental: Investigations were also performed to determine the iontophoretic antibiotic delivery efficiency of the HIC-based biofilm treatment system 100 using high current intensities. These investigations included an ex vivo antibiotic delivery study using the same MRSA biofilm-infected porcine skin wound model as in the previous section. Vancomycin (VAN) was used here as a model drug, since it is the FDA-approved antibiotic and is the clinical gold standard for combating S. aureus infections.
First the VAN delivery efficiency was tested at different current intensities (from 0 mA cm^−2 (passive diffusion) to 75 mA cm^−2) applied by the HIC-based biofilm treatment system 100 for 1 hour. The drug/buffer chamber 114 of the working device 104 was loaded with 1 mg mL^−1 VAN in this study. The anode side was used as the working device 104 because VAN required anodal iontophoresis. The accumulated concentration of VAN in biofilm infected skin wound was measured immediately after iontophoresis using high performance liquid chromatography (HPLC). […] When 75 mA cm^−2 was used, the VAN concentration in wound tissue increased to 4.5±0.52 mg g^−1. The VAN concentration in wound tissue after passive diffusion, 0.5 mA cm^−2, and 19 mA cm^−2 iontophoresis were also measured. However, they could not be distinguished from the background interference of the residual biofilm components, so no quantitative results were obtained (data not shown). Importantly, the VAN concentration delivered by 75 mA cm^−2 iontophoresis for 1 hour exceeded the minimal biofilm eradication concentration (MBEC) of VAN reported for MRSA biofilm, which was 4 mg g^−1. The ability to deliver a lethal antibiotic concentration into biofilm-infected wounds within a short period of time was critical for biofilm treatment as it would minimize the chance for bacteria to develop adaptive tolerance.
The fetal pig skin samples (approximately 30×30 mm) were immersed in 10% (v/v) bleach for 5 minutes after hair removal. Then, skin samples were sterilized in 70% ethanol for 30 minutes. The surface of skin sample was further cleaned by 10% povidone-iodine and 70% isopropanol to prevent contamination. A 6-mm disposable biopsy punch was used to create an excisional wound. Samples were put into sterile 10-cm petri-dishes filled with sterile PBS (6 mL). The wound was then inoculated with 1×10^8 CFU mL^−1 MRSA bacteria solution (20 μL). The bacteria were allowed to grow in a 37° C. Heratherm™ compact microbiological incubator (ThermoFischer Scientific™, Waltham, Mass., USA) for 48 hours to form mature biofilms.
To evaluate the antibiotic delivery efficacy of VAN by high-intensity current, biofilm infected fetal pig skin wound was used. The DAP test setup was same as that of VAN, except no PBS chamber 122 was used. Instead, the inner surface of the skin wound contacted directly to the hydrogel 120 of the counter device 106. To evaluate the effect of electrical current intensity on the drug delivery efficacy, different current intensities from 0 to 75 mA cm^−2 were applied. To evaluate the effect of loading concentration of antibiotics, different concentrations of VAN and DAP from 1 mg mL^−1 to 10 mg mL^−1 were used. Since VAN is […] and DAP is negatively charged under physiological environment, anode HIC-based device was placed facing biofilm for VAN iontophoresis, and cathode HIC-based device was placed facing biofilm for DAP iontophoresis. Samples were collected immediately after different treatments. The concentrations of antibiotics delivered into skin wound samples were measured by high-performance liquid chromatography (HPLC). The permeation coefficient (Pc, cm s^−1) was then calculated (Pc=J/C, where J is antibiotic delivery flux in tissue samples (μg (cm^2s)^−1, C is the loading concentration of antibiotic solution (μg m L^−1)). […]

[3] = tested on: HaCaT cells; assay: Cell toxicity of high concentration of antibiotics, LIVE/DEAD stain; type: cell-based, human; details: 20 mg mL^−1 DAP, 24 hour incubation
Experimental: (§1) To evaluate the cell toxicity of the high concentration of antibiotics, HaCaT cells and HDFa cells were used. 2×10^4 HaCat cells and 2×10^3 HDFa cells were seeded in each well of a 96-well plate. After being cultured in an incubator under 37° C. and 5% CO2 for 24 hours, 4.5 mg mL^−1 VAN and 20 mg mL^−1 DAP were added to the culture media, respectively. Both HaCat cells and HDFa cells were treated by VAN for two days, and exposed to DAP for one day, respectively. The cell toxicity of the two cells at the end time points were evaluated by LIVE/DEAD stain and visualized by a confocal laser scanning microscope (CLSM, LSM 710, Zeiss, Germany).

[4] = tested on: HDFa cells; assay: as above; type: cell-based, human; details: 20 mg mL^−1 DAP, 24 hour incubation
Experimental: as §1

[5] = tested on: planktonic MRSA; assay: Time-killing test on planktonic MRSA in stationary phase; type: cell-based, Methicillin-resistant S. aureus (MRSA) USA300; details: 5 mg mL^−1 DAP, within 24 hours
Experimental: MRSA bacteria was cultured in LB media in a 37° C. water shaking bath overnight to reach the concentration of 1×10^8 CFU mL^−1. Then, they were diluted to 10^5 CFU mL^−1 in 96-well plates by adding different concentrations of VAN solutions. After incubation for 24 hours without shaking, MIC of VAN to inhibit MRSA growth was measured by a Biotek Synergy H1 hybrid multi-mode microplate reader (BioTek, Winooski, Vt., USA) at OD600. To evaluate the killing time of VAN to bacteria in stationary phase (1×10^8 CFU mL^−1), VAN powder was added to bacteria solution to obtain concentration of 1 mg mL^−1, 3 mg mL^−1, 5 mg mL^−1, and 10 mg mL^−1, respectively, while remaining MRSA concentration of 1×10^8 CFU mL^−1. After incubation in a 37° C. water bath for 1 day, 2 days, 3 days and 4 days, the CFU of MRSA cells was tested by the standard plate spread counting assay, respectively. The time-killing tests of DAP with different concentrations (0.1 mg mL^−1, 0.5 mg mL^−1, 1 mg mL^−1, and 5 mg mL^−1) on MRSA planktonic cells were also performed, with the incubation time up to 24 hours.

[6] = tested on: S. aureus persister cells; details: even at 100×MIC; cited from earlier work
[7] = tested on: S. gordonii biofilms; details: cited from earlier work

Compound: Fluorescein isothiocyanate (FITC) labeled dextran-4 kDa [FD-4]
- distribution in wound tissue (fluorescence) ([1]; 0.5 mA cm^−2, 1 hour): indiscernible
- distribution in wound tissue (fluorescence) ([1]; 19 mA cm^−2, 1 hour): fluorescence could only be seen near the upper boundary of the wound tissue
- penetration depth (entire tissue thickness, after dehydration) ([1]; 75 mA cm^−2, 1 hour): 182.4±12.62 μm
- penetration depth (entire tissue thickness, before dehydration) ([1]; 75 mA cm^−2, 1 hour): 955.7±192.56 μm
- distribution in wound tissue (fluorescence) ([1]; 75 mA cm^−2, 1 hour): penetrated the entire thickness of the tissue sample
- distribution in wound tissue (fluorescence) ([1]; passive diffusion, 1 hour): indiscernible

Compound: CCCCCCCCCC(=O)N[C@@H](Cc1c[nH]c2ccccc12)C(=O)N[C@H](CC(N)=O)C(=O)N[C@@H](CC(=O)O)C(=O)N[C@@H]1C(=O)NCC(=O)N[C@@H](CCCN)C(=O)N[C@@H](CC(=O)O)C(=O)N[C@H](C)C(=O)N[C@@H](CC(=O)O)C(=O)NCC(=O)N[C@H](CO)C(=O)N[C@@H]([C@H](C)CC(=O)O)C(=O)N[C@@H](CC(=O)c2ccccc2N)C(=O)O[C@@H]1C [DAP, Daptomycin]
- Pc at 75 mA cm^−2 higher than 0.5 mA cm^−2 iontophoresis ([2]; 5 mg mL^−1 DAP): 10.1 times
- Pc at 75 mA cm^−2 higher than passive diffusion ([2]; 5 mg mL^−1 DAP): 12.0 times
- permeation coefficient (Pc) ([2]; 0.5 mA cm^−2 iontophoresis, 5 mg mL^−1 DAP): 15.7±3.37 ×10^−6 cm s^−1
- concentration delivered into wound tissue ([2]; 75 mA cm^−2, 1 hour, 1 mg mL^−1 DAP loaded): 3.3 ± 1.49 mg/g
- concentration delivered to wound tissues ([2]; 75 mA cm^−2, 1 hour): 19.9 ± 1.45 mg/g
- concentration delivered into wound tissue ([2]; 75 mA cm^−2, 1 hour, 10 mg mL^−1 DAP loaded): 32.8 ± 5.68 mg/g
- permeation coefficient (Pc) ([2]; 75 mA cm^−2 iontophoresis, 5 mg mL^−1 DAP): 158.3±11.18 ×10^−6 cm s^−1
- permeation coefficient (Pc) ([2]; passive diffusion, 5 mg mL^−1 DAP): 13.2±3.15 ×10^−6 cm s^−1
- concentration delivered to wound tissues ([2]; passive diffusion, 1 hour): 1.7 ± 0.59 mg/g
- viability of skin cells [3]: did not have significant impact
- viability of skin cells [4]: did not have significant impact
- bacterial count after incubation (from 10^8 CFU g^−1) [5]: 0 CFU g^−1
- killing of S. aureus persister cells [6]: not capable of killing

Compound: gentamicin
- biofilm bacterial count reduction ([7]; 0.4 mA cm^−2 with 2 μg mL^−1 gentamicin, 24 hours): 4.3 log10 scales
- bacteria count reduction ([7]; antibiotic alone): 0.8 log10 scale
